{"source": "patent US4657907A", "about": "“Low dosage compositions of finely pulverized 2,4-diamino-6-(2,5-dichlorophenyl)-1,3,5-triazine and pharmaceutically acceptable acid addition salts thereof and administration thereof” (Nippon Shinyaku Co., Ltd., priority 1981, dated 1987)", "key": {"[1]": {"assay": "Average particle diameter after jet milling, Coulter Counter TA-II", "format": "physicochemical", "conditions": "jet mill PJM-100 NP; dispersed in physiological saline with Tween-80", "procedure": "2,4-diamino-6-(2,5-dichlorophenyl)-1,3,5-triazine and pharmaceutically acceptable acid addition salts thereof may be finely pulverized to achieve the average particle diameter of 20 microns or less by using jet Mill PJM-100NP (Nippon Newmatic MEG Co.). The pulverization is carried out by feeding 2 kg or less of the substance per hour. An average particle diameter of about 8 microns may be prepared in that manner. If necessary, auxiliary pulverizing agents such as starch, anhydrous silicic acid, etc. may be used. In measuring average particle size, the powder is dispersed in physiological saline solution containing one drop of Tween-80 with the aid of an ultrasonic homogenizer for 30 seconds and measured by Coleter Counter TA-II (Coulter Electronics Co., U.S.A.) equipped with aperture tube of 100 microns.\n2,4-Diamino-6-(2,5-dichlorophenyl)-1,3,5-triazine is powdered by supplying it at a rate of not more than 2 kg/hour to a Jet Mill PJM-100 NP (Nippon Newmatic Mfg. Co.). The pulverized pharmaceutical is dispersed in a physiological saline solution containing one drop of Tween-80 by the use of ultrasonic homogenizer for 30 seconds and their particle diameter in average is measured by Coulter Counter TA-II (Coleter Eelectronics Co., USA) and the result is about 8 microns."}, "rats": {"test_system": "rats", "assay": "Acute toxicity (LD50), intraperitoneal injection", "format": "in vivo", "conditions": "dosages up to 3000 mg/kg, average particle diameter about 8 microns", "from_the_text": "This decrease in toxicity is totally unexpected and represents a significant and important advance in the art."}, "ulcers": {"test_system": "ulcers", "assay": "Clinical experiments: rate of recovery or cure of ulcers in patients", "format": "in vivo, humans", "procedure": "Clinical experiments were conducted wherein patients were given 1, 2 and 4 mg/day of 2,4-diamino-6-(2,5-dichlorophenyl)-1,3,5-triazine in separate groups. There were 133 patients participating in the group and 123 were separately analyzed (groups of 20, 46 and 57). The rate of recovery or cure of ulcers during those clinical trials over the period indicated was as follows: […]"}, "[2]": {"test_system": "ulcer formation induced by stress", "assay": "Inhibition of stress ulcer formation (immobilization-water immersion method), oral", "format": "in vivo, rats", "conditions": "average particle diameter about 50 microns; for Inhibition Rate (stress ulcer): three repeat values"}, "[3]": {"assay": "Clinical experiments: side effects in patients", "format": "in vivo, humans", "conditions": "4 mg group", "procedure": "Clinical experiments were conducted wherein patients were given 1, 2 and 4 mg/day of 2,4-diamino-6-(2,5-dichlorophenyl)-1,3,5-triazine in separate groups. There were 133 patients participating in the group and 123 were separately analyzed (groups of 20, 46 and 57). The rate of recovery or cure of ulcers during those clinical trials over the period indicated was as follows:\nOnly one side effect was noted. There was an increase in transaminase (GOT and GPT) observed in one case (1.8% of the total) in the 4 mg group."}, "[4]": {"assay": "Body weight increase inhibition on chronic oral administration", "format": "in vivo, rats", "conditions": "for body weight increase: 10 mg/kg or more per day, chronic oral, rats", "from_the_text": "A further advantage resulted from body weight increase inhibition which is one of the main side effects of the compound and salts of the present invention. […] This is a side effect of triazines of this type.\nThe average particle sizes were 8 microns for the compound according our copending application as compared to the same compound having an average particle diameter of 50 microns."}, "[5]": {"test_system": "ulcer formation induced by stress", "assay": "Inhibition of stress ulcer formation (immobilization-water immersion method), oral", "format": "in vivo, rats", "conditions": "for dose dependency of stress ulcer inhibition: 0.3 to 30 mg/kg", "from_the_text": "Since 50 microns is a common particle diameter in pharmaceutical preparations, it was most surprising that such significant and important advantages resulted. Inhibition activity against stress ulcer in rats of the compound and pharmaceutically acceptable acid addition salts in the finely pulverized form are set forth in Table 2."}, "[6]": {"conditions": "0.3 mg/kg, finely pulverized form"}, "[7]": {"conditions": "1.0 mg/kg, finely pulverized form"}, "[8]": {"conditions": "3.0 mg/kg, finely pulverized form"}, "[9]": {"conditions": "10 mg/kg, finely pulverized form"}}, "note": "“And” between values parts separate entries of the source, which are not always exact repeats. Equal values may be shown once."}
{"smiles": "Nc1nc(N)nc(-c2cc(Cl)ccc2Cl)n1", "note": "[Substance (I), 2,4-diamino-6-(2,5-dichlorophenyl)-1,3,5-triazine]", "values": [{"measurement": "average particle diameter", "setting": "[1]", "result": "about 8 microns"}, {"measurement": "lethality", "setting": "rats", "result": "no rats were killed"}, {"measurement": "rate of recovery or cure of ulcers", "setting": "ulcers; 1 mg/day, 4 weeks", "result": 20.0, "unit": "%"}, {"measurement": "rate of recovery or cure of ulcers", "setting": "ulcers; 1 mg/day, 8 weeks", "result": 50.0, "unit": "%"}, {"measurement": "rate of recovery or cure of ulcers", "setting": "ulcers; 2 mg/day, 4 weeks", "result": 17.4, "unit": "%"}, {"measurement": "rate of recovery or cure of ulcers", "setting": "ulcers; 2 mg/day, 8 weeks", "result": 47.8, "unit": "%"}, {"measurement": "rate of recovery or cure of ulcers", "setting": "ulcers; 4 mg/day, 4 weeks", "result": 41.6, "unit": "%"}, {"measurement": "rate of recovery or cure of ulcers", "setting": "ulcers; 4 mg/day, 8 weeks", "result": 56.1, "unit": "%"}, {"measurement": "recovery rate of ulcer improvement, degree of ulcer, effect against subjective and non-subjective symptoms", "setting": "ulcers; hospitalized patients, 4 mg group compared with other groups", "result": "marked superiority"}, {"measurement": "Inhibition Rate (stress ulcer)", "setting": "[2]; 0.37 mg/kg per os", "result": "37% and 46% and 29%"}, {"measurement": "Inhibition Rate (stress ulcer)", "setting": "[2]; 3.72 mg/kg per os", "result": "62% and 47% and 33%"}, {"measurement": "activity on ulcer formation induced by stress", "setting": "[2]; oral, 5 mg/kg", "result": "ineffective"}, {"measurement": "increase in transaminase (GOT and GPT), cases", "setting": "[3]; only side effect noted", "result": "one case"}, {"measurement": "increase in transaminase (GOT and GPT), incidence", "setting": "[3]; printed as % of the total", "result": 1.8, "unit": "%"}, {"measurement": "body weight increase", "setting": "[4]", "result": "body weight increase was inhibited"}, {"measurement": "recovery of body weight", "setting": "[4]; about 8 microns compared to about 50 microns", "result": "far faster"}, {"measurement": "body weight increase inhibition (side effect)", "setting": "[4]; average particle diameter about 8 microns", "result": "only transient and moderate"}, {"measurement": "Inhibition Rate (stress ulcer)", "setting": "[5]; [6]", "result": 33, "unit": "%"}, {"measurement": "Inhibition Rate (stress ulcer)", "setting": "[5]; [7]", "result": 45, "unit": "%"}, {"measurement": "Inhibition Rate (stress ulcer)", "setting": "[5]; [8]", "result": 63, "unit": "%"}, {"measurement": "Inhibition Rate (stress ulcer)", "setting": "[5]; [9]", "result": 70, "unit": "%"}, {"measurement": "Inhibition Rate (stress ulcer)", "setting": "[5]; 30 mg/kg, finely pulverized form", "result": 85, "unit": "%"}, {"measurement": "dose dependency of stress ulcer inhibition", "setting": "[5]; finely pulverized form", "result": "linear dose dependency"}, {"measurement": "activity on ulcer formation induced by stress", "setting": "[5]; oral, 1 mg/kg, finely pulverized (compound of earlier invention)", "result": "effective"}]}
{"smiles": "Nc1nc(N)nc(-c2cc(Cl)ccc2Cl)n1", "note": "[Substance (II)]", "values": [{"measurement": "body weight increase", "setting": "[4]", "result": "body weight increase was inhibited"}, {"measurement": "improvement in body weight side effect", "setting": "[4]; maleate salt according to the invention compared with maleate salt of about 50 microns", "result": "particularly dramatic"}, {"measurement": "Inhibition Rate (stress ulcer)", "setting": "[5]; [6]", "result": 35, "unit": "%"}, {"measurement": "Inhibition Rate (stress ulcer)", "setting": "[5]; [7]", "result": 51, "unit": "%"}, {"measurement": "Inhibition Rate (stress ulcer)", "setting": "[5]; [8]", "result": 70, "unit": "%"}, {"measurement": "Inhibition Rate (stress ulcer)", "setting": "[5]; [9]", "result": 85, "unit": "%"}, {"measurement": "dose dependency of stress ulcer inhibition", "setting": "[5]; finely pulverized form", "result": "linear dose dependency"}, {"measurement": "ED50 (stress ulcer inhibition)", "setting": "[5]; per os, finely pulverized form, from Table 2 data", "result": 0.90, "unit": "mg/kg"}]}
